Consider 5 compounds from patent US11407750B2, “Derivatives of an FGFR inhibitor” (Incyte Corporation, priority 2019, dated 2022).

As usually defined, the Papp B→A is the apparent permeability from the basolateral to the apical side of a cell layer. One may read the IC50 as the point on the concentration scale where inhibition reaches its midpoint.

Data set [1] in a line: Permeability in Caco-2 cells (absorptive direction A-B). Type of data set: in vitro ADME. To be noted: human, Caco-2, 4% BSA in receiver, read-out: CACO2 Pm. As to the method: (§1) Caco-2 cells were grown in 96-well transwell plates with a seeding density of 14000 cell/well in DMEM medium. To determine the permeability in the absorptive direction (A-B), the test compound in HBSS was added to the donor compartment (apical side), and 4% BSA in HBSS was added into the receiver compartment (basolateral side). To determine whether a compound is a P-gp substrate, permeability values were measured in both the A-B and B-A directions (bidirectional transport assay) in the absence of 4% BSA. Digoxin and cyclosporine A were included as positive controls for P-gp substrate and inhibitor, respectively, to ensure the functionality of P-gp in the bidirectional transport assay. The test compound at various concentrations was added in the donor compartment (apical side for A-B transport and basolateral side for B-A transport) while HBSS solution was added in the receiver compartment (basolateral side for A-B transport and apical side for B-A transport). For permeability studies in the A-B direction, the donor volume was 0.075 mL, and the receiver volume was 0.25 mL. For permeability studies in the B-A direction, the donor volume was 0.25 mL, and the receiver volume was 0.075 mL. The incubation was carried out at 37° C. for 120 minutes. Transepithelial electrical resistance (TEER) was measured before and after the 120 minutes incubation to ensure the integrity of the cell monolayers. At the end of the incubation period, samples were removed from both the donor and receiver sides and mixed with acetonitrile for protein precipitation. The supernatants were collected after centrifugation for analysis using LC-MS/MS method.
(§2) Permeability coefficient (Papp) values from Caco-2 studies were determined using the following equation: Papp(cm/s)=(F*VD)/(SA*MD) where the flux rate (F, mass/time) was calculated from the slope of cumulative amounts of compound of interest on the receiver side, SA is the surface area of the cell membrane, VD is the donor volume, and MD is the initial amount of the solution in the donor chamber.
(Caco-2 cells form a polarised layer with tight junctions and transporters.)

The next data set has as its system Caco-2 cells. The description is as above. It counts as in vitro ADME. To be noted: 4% BSA in receiver. The protocol: as §1, §2
A further data set has as its target P-gp (Homo sapiens (Human), UniProt P08183). In words: Bidirectional transport across Caco-2 monolayers (P-gp mediated transport). It counts as in vitro ADME. The conditions noted are these: human. As to the method: as §1, §2
The efflux ratio from Caco-2 studies was calculated as the ratio of the Papp measured in the B-A direction divided by the Papp in the A-B direction.

Data set [2] can be described thus: Compound 1 human absorption, metabolism, and excretion study (single oral dose of [14C] Compound 1). Type of data set: in vivo. The conditions noted are these: for % Total Radioactivity Pool of Hamilton Pools (0-24 h): blood/plasma samples; for % of Administered Dose in Feces Samples, Sum: sum 0-144 h. The protocol:
An open label-study was conducted, assessing the mass balance, pharmacokinetics, and metabolite profiles of a single oral dose of [14C] Compound 1:
Blood/plasma, urine, and feces were collected from participants for 4 to 10 days after administration.
Human discharge criteria includes that a minimum of 90% of the administered radioactive dose is recovered; and that less than or equal to 1% of the administered radioactive dose is recovered in excreta (urine and feces combined) in 2 consecutive 24-hour urine and fecal collection samples.

Another data set has as its target FGFR1 (Homo sapiens (Human), UniProt P11362). Nature of the data set: FGFR Enzymatic Assay (FRET peptide phosphorylation), FGFR1. Type of data set: biochemical. As to the method:
(§3) The inhibitor potency of the exemplified compounds was determined in an enzyme discontinuous assay that measures peptide phosphorylation using FRET measurements to detect product formation. Inhibitors were serially diluted in DMSO and a volume of 0.2 μL was transferred to the wells of a 384-well plate. For the isoforms of FGFR (−1, −2, −3 wild-type and mutant isoforms, −4) including phosphorylated and un-phosphorylated proteins, a 5 μL/well volume of enzyme diluted in assay buffer (50 mM HEPES, 10 mM MgCl2, 1 mM EGTA, 0.01% Tween-20, 5 mM DTT, pH 7.5) was added to the plate and pre-incubated with inhibitor for 5 to 15 minutes at ambient temperature. Appropriate controls (enzyme blank and enzyme with no inhibitor) were included on the plate. The reaction was initiated by the addition of a 5 μL/well volume containing both biotinylated […] […] The ATP Km values were pre-determined for each FGFR isoform in a separate series of experiments. […] The plate was allowed to equilibrate for ˜10 minutes at ambient temperature before scanning on a PheraStar plate reader (BMG Labtech) instrument.
(§4) Either GraphPad prism or XLfit was used to analyze the data. The IC50 values were derived by fitting the data to a four parameter logistic equation producing a sigmoidal dose-response curve with a variable Hill coefficient. Prism equation: Y=Bottom+(Top−Bottom)/(1+10^((Log IC50−X)*Hill slope)); […]

The target of the next data set is FGFR2 (Homo sapiens (Human), UniProt P21802). In words: FGFR Enzymatic Assay (FRET peptide phosphorylation), FGFR2. It counts as biochemical. The protocol:
as §3, §4

The target of another data set is FGFR3 (Homo sapiens (Human), UniProt P22607). In words: FGFR Enzymatic Assay (FRET peptide phosphorylation), FGFR3. Type of data set: biochemical. The protocol:
as §3, §4

Data set [3] addresses tyrosine-phosphorylated Fibroblast Growth Factor Receptor 2 alpha (FGFR2α) in KATO III cells (Homo sapiens, UniProt P21802). Nature of the data set: KATOIII Whole Blood pFGFR2α ELISA Assay. It counts as cell-based. To be noted: read-out: FGFR2_WB_ELISA-KATOIII IC50; KATO III cells spiked into human whole blood, 4 hours. As to the method:
To measure tyrosine-phosphorylated Fibroblast Growth Factor Receptor 2 alpha (FGFR2a) in KATO III spiked whole blood assay, KATO III cells were purchased from ATCC and maintained in Iscove's medium with 20% FBS (Gibco/Life Technologies). […] 50 uL of the cells were then spiked into a 96-deep well 2 ml polypropylene assay block (Costar) in the presence or absence of a concentration range of test compounds and 300 ul human heparinized whole blood (Biological Specialty Corp, Colmar Pa.). After 4 hours incubation in 37° C., the red cells were lysed using Qiagen EL buffer and the cell lysates were resuspended in lysis buffer (Cell Signaling) containing standard protease inhibitor cocktail (Calbiochem/EMD) and PMSF (Sigma) for 30 minutes ice. […] IC50 determination was performed by fitting the curve of inhibitor percent inhibition versus the log of the inhibitor concentration using the GraphPad Prism 5.0 software.
Background: ELISA stands for enzyme-linked immunosorbent assay.

The mark [4] stands for this setting: Caco-2, with cyclosporine A (CSA) 5 μM, with CSA 5 μM.
The mark [5] stands for this setting: radioactive dose, single oral dose, healthy male subjects.

Chain of P-gp (P08183 whole entry): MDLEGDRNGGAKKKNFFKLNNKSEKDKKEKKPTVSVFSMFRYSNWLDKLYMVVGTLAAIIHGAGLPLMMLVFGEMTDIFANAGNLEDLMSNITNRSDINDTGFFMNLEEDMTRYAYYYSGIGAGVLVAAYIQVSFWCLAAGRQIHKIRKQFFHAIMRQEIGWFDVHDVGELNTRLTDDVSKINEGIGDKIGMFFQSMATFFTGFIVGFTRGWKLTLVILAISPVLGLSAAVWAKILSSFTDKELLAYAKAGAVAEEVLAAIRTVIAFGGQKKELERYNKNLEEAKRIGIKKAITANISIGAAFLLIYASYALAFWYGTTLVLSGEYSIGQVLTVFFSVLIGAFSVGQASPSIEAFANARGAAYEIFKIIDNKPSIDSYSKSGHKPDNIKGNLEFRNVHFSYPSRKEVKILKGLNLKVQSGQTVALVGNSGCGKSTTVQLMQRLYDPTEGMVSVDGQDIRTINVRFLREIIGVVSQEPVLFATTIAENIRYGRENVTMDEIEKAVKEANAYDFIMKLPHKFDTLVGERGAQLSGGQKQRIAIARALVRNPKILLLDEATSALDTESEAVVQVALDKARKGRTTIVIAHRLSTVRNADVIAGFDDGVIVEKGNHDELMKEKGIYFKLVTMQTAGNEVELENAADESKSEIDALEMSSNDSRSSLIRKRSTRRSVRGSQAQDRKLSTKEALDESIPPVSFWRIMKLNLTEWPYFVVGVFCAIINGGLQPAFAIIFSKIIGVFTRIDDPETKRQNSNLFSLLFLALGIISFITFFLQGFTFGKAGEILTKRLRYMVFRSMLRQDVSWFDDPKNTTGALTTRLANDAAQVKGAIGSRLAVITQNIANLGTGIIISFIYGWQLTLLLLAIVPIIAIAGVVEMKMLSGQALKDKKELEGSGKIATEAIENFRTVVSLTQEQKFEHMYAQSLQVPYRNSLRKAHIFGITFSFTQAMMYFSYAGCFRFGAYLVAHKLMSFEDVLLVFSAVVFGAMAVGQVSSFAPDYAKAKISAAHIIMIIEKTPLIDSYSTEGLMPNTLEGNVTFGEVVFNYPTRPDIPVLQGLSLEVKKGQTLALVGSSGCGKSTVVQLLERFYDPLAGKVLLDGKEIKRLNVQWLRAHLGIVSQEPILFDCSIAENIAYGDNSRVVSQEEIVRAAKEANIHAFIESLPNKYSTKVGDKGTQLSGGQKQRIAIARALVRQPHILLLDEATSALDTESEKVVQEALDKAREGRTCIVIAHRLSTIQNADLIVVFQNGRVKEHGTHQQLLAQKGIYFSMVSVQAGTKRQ
Chain of FGFR2 (P21802 22-821): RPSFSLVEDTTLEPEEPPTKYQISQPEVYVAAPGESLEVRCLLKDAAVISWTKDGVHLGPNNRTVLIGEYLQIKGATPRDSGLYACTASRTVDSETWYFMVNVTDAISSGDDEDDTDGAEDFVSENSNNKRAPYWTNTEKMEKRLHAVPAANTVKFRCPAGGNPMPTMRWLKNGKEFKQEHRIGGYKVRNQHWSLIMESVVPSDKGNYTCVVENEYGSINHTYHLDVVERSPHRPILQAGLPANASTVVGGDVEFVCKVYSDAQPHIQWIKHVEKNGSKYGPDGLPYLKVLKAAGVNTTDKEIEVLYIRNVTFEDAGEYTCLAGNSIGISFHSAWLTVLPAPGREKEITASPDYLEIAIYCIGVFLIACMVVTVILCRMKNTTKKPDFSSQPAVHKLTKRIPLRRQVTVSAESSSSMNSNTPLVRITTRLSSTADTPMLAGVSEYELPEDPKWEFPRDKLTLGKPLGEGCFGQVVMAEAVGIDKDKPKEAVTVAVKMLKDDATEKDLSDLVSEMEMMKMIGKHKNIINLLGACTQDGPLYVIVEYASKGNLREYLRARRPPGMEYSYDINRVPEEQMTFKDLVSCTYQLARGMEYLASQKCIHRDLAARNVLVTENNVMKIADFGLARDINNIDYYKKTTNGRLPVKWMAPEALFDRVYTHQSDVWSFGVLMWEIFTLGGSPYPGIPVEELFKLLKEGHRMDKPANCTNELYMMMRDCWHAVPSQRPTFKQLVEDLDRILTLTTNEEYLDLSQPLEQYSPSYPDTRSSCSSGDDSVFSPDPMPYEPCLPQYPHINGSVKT
Chain of tyrosine-phosphorylated Fibroblast Growth Factor Receptor 2 alpha (FGFR2α) in KATO III cells (P21802 22-821 limits assumed): as the sequence (P21802 22-821) above
Chain of FGFR3 (P22607 23-806): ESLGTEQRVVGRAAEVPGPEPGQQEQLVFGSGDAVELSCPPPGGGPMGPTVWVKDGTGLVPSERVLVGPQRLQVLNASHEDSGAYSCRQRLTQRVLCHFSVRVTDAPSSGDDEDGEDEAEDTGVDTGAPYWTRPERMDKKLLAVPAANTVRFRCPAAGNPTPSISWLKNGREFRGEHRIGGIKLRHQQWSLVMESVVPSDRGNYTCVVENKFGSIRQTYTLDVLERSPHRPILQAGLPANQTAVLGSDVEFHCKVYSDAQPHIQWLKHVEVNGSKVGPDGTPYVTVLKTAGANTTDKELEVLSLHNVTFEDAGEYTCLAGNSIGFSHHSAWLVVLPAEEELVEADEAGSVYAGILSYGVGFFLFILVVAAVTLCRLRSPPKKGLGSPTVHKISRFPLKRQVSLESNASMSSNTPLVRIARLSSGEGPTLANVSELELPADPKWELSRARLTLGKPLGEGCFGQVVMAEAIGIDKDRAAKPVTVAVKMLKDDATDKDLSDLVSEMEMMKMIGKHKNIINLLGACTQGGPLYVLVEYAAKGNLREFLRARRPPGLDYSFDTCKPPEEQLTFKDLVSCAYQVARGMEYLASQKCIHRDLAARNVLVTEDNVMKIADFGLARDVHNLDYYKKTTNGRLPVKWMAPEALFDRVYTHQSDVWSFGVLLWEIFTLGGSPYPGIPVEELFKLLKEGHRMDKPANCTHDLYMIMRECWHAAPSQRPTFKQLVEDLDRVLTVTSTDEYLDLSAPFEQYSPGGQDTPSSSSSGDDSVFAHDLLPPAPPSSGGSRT
Chain of FGFR1 (P11362 22-822): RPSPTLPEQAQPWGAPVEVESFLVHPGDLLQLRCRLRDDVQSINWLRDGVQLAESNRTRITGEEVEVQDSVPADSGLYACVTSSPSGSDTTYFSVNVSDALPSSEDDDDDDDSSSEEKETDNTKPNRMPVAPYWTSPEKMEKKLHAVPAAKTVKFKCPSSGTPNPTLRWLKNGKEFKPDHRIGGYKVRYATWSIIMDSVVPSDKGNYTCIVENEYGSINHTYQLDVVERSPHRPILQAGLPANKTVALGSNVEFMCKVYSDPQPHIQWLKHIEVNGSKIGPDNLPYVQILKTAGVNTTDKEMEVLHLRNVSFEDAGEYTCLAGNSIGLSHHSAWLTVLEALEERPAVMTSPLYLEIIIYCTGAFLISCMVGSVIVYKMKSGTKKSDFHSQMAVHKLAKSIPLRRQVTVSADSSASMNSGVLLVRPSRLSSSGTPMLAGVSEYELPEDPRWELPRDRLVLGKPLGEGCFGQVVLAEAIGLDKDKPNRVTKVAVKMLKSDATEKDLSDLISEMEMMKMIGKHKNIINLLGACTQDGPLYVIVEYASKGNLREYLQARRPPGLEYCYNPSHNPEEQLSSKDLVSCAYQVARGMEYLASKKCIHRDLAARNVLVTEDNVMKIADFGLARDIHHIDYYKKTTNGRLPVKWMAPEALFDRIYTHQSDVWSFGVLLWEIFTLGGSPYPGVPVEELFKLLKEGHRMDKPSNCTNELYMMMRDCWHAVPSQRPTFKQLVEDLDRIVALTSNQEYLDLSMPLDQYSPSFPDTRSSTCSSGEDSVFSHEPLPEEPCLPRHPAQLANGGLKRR

Turning to `CCN1C(=O)N(c2c(F)c(OC)cc(OC)c2F)Cc2cnc3[nH]c(CN4CCOCC4)cc3c21` [Compound 1, 3-(2,6-difluoro-3,5-dimethoxyphenyl)-1-ethyl-8-(morpholin-4-ylmethyl)-1,3,4,7-tetrahydro-2H-pyrrolo[3′,2′:5,6]pyrido[4,3-d]pyrimidin-2-one], the Papp A→B at 120 min in data set [1] worked out at 11 ×10⁻⁶ cm/s. Also, in the data set on Caco-2 cells, the “CACO2 Pm” value is 11 ×10E−6 cm/s. For the same compound, the Papp A→B at 120 min, 1 μM worked out at 12 ± 2.3 ×10⁻⁶ cm/s at P-gp (setting [4]) and 7.3 ± 1.6 ×10⁻⁶ cm/s at P-gp (Caco-2, no inhibitor). The Papp B→A at 120 min, 1 μM on P-gp (setting [4]) turned out to be 9 ± 1.8 ×10⁻⁶ cm/s; on P-gp (Caco-2, no inhibitor) it was 11 ± 0.95 ×10⁻⁶ cm/s. For the same compound, the Papp A→B at 120 min, 30 μM came to 18 ± 0.75 ×10⁻⁶ cm/s at P-gp (setting [4]) and 21 ± 1.1 ×10⁻⁶ cm/s at P-gp (Caco-2, no inhibitor). For the same compound, the basolateral-to-apical permeability (Papp B→A) at 120 min, 30 μM was 12 ± 1.3 ×10⁻⁶ cm/s on P-gp (setting [4]) and 13 ± 1.6 ×10⁻⁶ cm/s on P-gp (Caco-2, no inhibitor). Further, in data set [2] (0-24 h), the “% Total Radioactivity Pool of Hamilton Pools (0-24 h)” value came out at 64.5%. The “% of Administered Dose in Feces Samples” value in data set [2] (0-24 h) is listed as 0.1%; in data set [2] (24-48 h) it was 0.6%; in data set [2] (48-72 h), 0.4%; in data set [2] (72-96 h), 0.2%; in data set [2] (96-120 h), 0.0%; in data set [2] (120-144 h), 0.0%. The “% of Administered Dose in Feces Samples, Sum” value in data set [2] turned out to be 1.4%. In addition, the “overall recovery of radioactivity in urine and feces” value in data set [2] (over the 240 hour study) worked out at 95.1%. Besides, in data set [2] (post dose, single oral dose, fasted), the “time of peak total radioactivity and plasma Compound 1 concentrations” value was “about 2.0 hours”. In addition, the “dose recovered in feces” value in data set [2] (setting [5]) was determined as 82.4%. The “dose recovered in urine” value in data set [2] (setting [5]) turned out to be 12.6%. Further, the “% of Administered Dose in Urine Sample” value amounted to 0.5% in data set [2] (urine, 0-6 h); 0.2% in data set [2] (urine, 6-12 h); 0.2% in data set [2] (urine, 12-24 h); 0.2% in data set [2] (urine, 24-48 h). Also, the “% of Administered Dose in Urine Sample, Sum” value in data set [2] (urine, sum 0-48 h) is recorded as 1.0%.

For the compound `CCN1C(=O)N(c2c(F)c(OC)cc(OC)c2F)C(O)c2cnc3[nH]c(CN4CCOCC4)cc3c21` (stereo not drawn) [Compound 3, 3-(2,6-difluoro-3,5-dimethoxyphenyl)-1-ethyl-4-hydroxy-8-(morpholinomethyl)-1,3,4,7-tetrahydro-2H-pyrrolo[3′,2′:5,6]pyrido[4,3-d]pyrimidin-2-one], the concentration for half-maximal inhibition (IC50) at FGFR1 lay in the range of 10 to 100 nM; on FGFR2, 10 to 100 nM; against FGFR3, 100 to 500 nM; in data set [3], 1000 to 3000 nM. The “% Total Radioactivity Pool of Hamilton Pools (0-24 h)” value in data set [2] (0-24 h) came to 6.0%.

Take `CCN1C(=O)N(c2c(F)c(O)cc(O)c2F)Cc2cnc3[nH]c(CN4CCOCC4)cc3c21` [Compound 4, 3-(2,6-difluoro-3,5-dihydroxyphenyl)-1-ethyl-8-(morpholinomethyl)-1,3,4,7-tetrahydro-2H-pyrrolo[3′,2′:5,6]pyrido[4,3-d]pyrimidin-2-one]: the “% of Administered Dose in Feces Samples” value worked out at 0.5% in data set [2] (24-48 h); 2.3% in data set [2] (48-72 h); 1.1% in data set [2] (72-96 h); 0.2% in data set [2] (96-120 h); 0.4% in data set [2] (120-144 h). For the same compound, the “% of Administered Dose in Feces Samples, Sum” value in data set [2] is on record as 4.5%.

On to `CCN1C(=O)N(c2c(F)c(O)cc(OC)c2F)Cc2cnc3[nH]c(C(=O)O)cc3c21` [Compound 5, 3-(2,6-difluoro-3-hydroxy-5-methoxyphenyl)-1-ethyl-2-oxo-2,3,4,7-tetrahydro-1H-pyrrolo[3′,2′: 5,6]pyrido[4,3-d]pyrimidine-8-carboxylic acid], for which the “% of Administered Dose in Feces Samples” value in data set [2] (24-48 h) is 0.4%; in data set [2] (48-72 h), 0.6%; in data set [2] (72-96 h), 0.5%; in data set [2] (96-120 h), 0.0%; in data set [2] (120-144 h), 0.1%. In data set [2], the “% of Administered Dose in Feces Samples, Sum” value is on record as 1.6%.

In the case of `[2H]C([2H])([2H])Oc1cc(OC([2H])([2H])[2H])c(F)c(N2Cc3cnc4[nH]c(CN5CCOCC5)cc4c3N(CC)C2=O)c1F` [Compound 6, 3-(2,6-difluoro-3,5-bis(methoxy-d3)phenyl)-1-ethyl-8-(morpholinomethyl)-1,3,4,7-tetrahydro-2H-pyrrolo[3′,2′:5,6]pyrido[4,3-d]pyrimidin-2-one], the Papp A→B at 120 min in data set [1] stood at 16 ×10⁻⁶ cm/s.
